Patent US10597388B2, “Pyridazinone herbicides” (FMC CORPORATION, priority 2014, dated 2020)

Tests used:
Experiment in all cases: Test C greenhouse herbicide test, pre- and postemergence
Type in all cases: in vivo
[1] = test system: velvetleaf (Abutilon theophrasti)
Outline: (§1)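 Greenhouse pots; pre-em on seeded loam:sand blend, post-em on 2–18 cm plants (1–4 leaf) in sphagnum peat/vermiculite medium. Formulation: non-phytotoxic solvent + surfactant. Read-out: visual % control (0–100) vs controls at 13–15 d.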

[2] = test system: ragweed (common ragweed, Ambrosia elatior)
Outline: as §1

[3] = test system: galium (catchweed bedstraw, Galium aparine)
Outline: as §1

[4] = test system: oilseed rape (Brassica napus)
Outline: as §1

[5] = test system: crabgrass, large (large crabgrass, Digitaria sanguinalis)
Outline: as §1

soybean (Glycine max) = test system: soybean (Glycine max)
Outline: as §1

[6] = test system: lambsquarters (Chenopodium album)
Outline: as §1

[7] = test system: barnyardgrass (Echinochloa crus-galli)
Outline: as §1

[8] = test system: nutsedge, yellow (yellow nutsedge, Cyperus esculentus)
Outline: as §1

corn (Zea mays) = test system: corn (Zea mays)
Outline: as §1

[9] = test system: wheat (winter wheat, Triticum aestivum)
Outline: as §1

[10] = test system: blackgrass (Alopecurus myosuroides)
Outline: as §1

[11] = test system: ryegrass, Italian (Italian ryegrass, Lolium multiflorum)
Outline: as §1

[12] = test system: foxtail, giant (giant foxtail, Setaria faberii)
Outline: as §1

[13] = test system: pigweed (Amaranthus retroflexus)
Outline: as §1

[14] = Postemergence, 31 g ai/ha, scale 0 to 100 (0 no effect, 100 complete control)
[15] = Postemergence, 62 g ai/ha, 0 to 100 scale (0 no effect, 100 complete control)
[16] = Postemergence, 250 g ai/ha, scale 0 to 100, 0 no effect, 100 complete control, 13 to 15 d
[17] = Preemergence, 31 g ai/ha, scale 0 to 100, 0 is no effect, 100 is complete control
[18] = Preemergence, 62 g ai/ha, scale 0 to 100, 0 is no effect, 100 is complete control
[19] = Preemergence, 125 g ai/ha, scale 0 to 100, 0 is no effect, 100 is complete control
[20] = Preemergence, 250 g ai/ha, scale 0 to 100, 0 no effect, 100 complete control
[21] = postemergence, 125 g ai/ha, scale 0 to 100, 0 no effect, 100 complete control

COC(=O)Oc1c(OC)nn(C)c(=O)c1-c1c(C)ccc2ccccc12 [Compound 136]
0: Plant response rating, Ragweed [2, 14] | Ragweed plant response rating [2, 15] | Ragweed plant response rating [2, 21] | Plant response rating, Crabgrass, Large [5, 17] | Plant response rating, Corn (corn (Zea mays); [14]) | Plant response rating, Corn (corn (Zea mays); [17]) | Plant response rating, Corn (corn (Zea mays); [19]) | Plant response rating, Wheat [9, 17]
50: Plant response rating, Barnyardgrass [7, 18] | Plant response rating, Ryegrass, Italian [11, 17]
35: Plant response rating, Crabgrass, Large [5, 16] | Plant response rating, Barnyardgrass ([7]; Postemergence, 125 g ai/ha, scale 0 to 100, 0 is no effect, 100 is complete control) | Plant response rating, Nutsedge, Yellow [8, 18] | Plant response rating, Wheat [9, 14] | Plant response rating, Ryegrass, Italian [11, 16] | Plant response rating, Foxtail, Giant [12, 14]
30: Plant response rating, Oilseed Rape [4, 18] | Blackgrass plant response rating [10, 21] | Ryegrass, Italian plant response rating [11, 21]
70: Plant response rating, Nutsedge, Yellow [8, 19] | Plant response rating, Blackgrass [10, 17] | Plant response rating, Blackgrass [10, 19] | Foxtail, Giant plant response rating [12, 21]
85: Plant response rating, Nutsedge, Yellow [8, 16] | Plant response rating, Ryegrass, Italian [11, 19] | Plant response rating, Foxtail, Giant [12, 18] | Pigweed plant response rating [13, 21]
95: Velvetleaf plant response rating [1, 15] | Plant response rating, Velvetleaf [1, 18] | Plant response rating, Ragweed [2, 17] | Plant response rating, Galium [3, 16] | Plant response rating, Oilseed Rape [4, 14] | Crabgrass, Large plant response rating [5, 20] | Plant response rating, Lambsquarters [6, 17] | Lambsquarters plant response rating [6, 21] | Barnyardgrass plant response rating [7, 20]
15: Plant response rating, Soybean (soybean (Glycine max); [16]) | Plant response rating, Barnyardgrass [7, 14] | Plant response rating, Nutsedge, Yellow [8, 14]
40: Plant response rating, Barnyardgrass [7, 16]
25: Crabgrass, Large plant response rating [5, 21] | Barnyardgrass plant response rating [7, 15] | Plant response rating, Barnyardgrass [7, 17]
45: Wheat plant response rating [9, 15] | Plant response rating, Wheat [9, 19] | Wheat plant response rating [9, 20] | Wheat plant response rating [9, 21] | Plant response rating, Blackgrass [10, 16] | Foxtail, Giant plant response rating [12, 15]
100: Plant response rating, Velvetleaf [1, 19] | Velvetleaf plant response rating [1, 20] | Plant response rating, Ragweed [2, 19] | Ragweed plant response rating [2, 20] | Plant response rating, Galium [3, 19] | Galium plant response rating [3, 20] | Oilseed Rape plant response rating [4, 20] | Plant response rating, Lambsquarters [6, 16] | Plant response rating, Lambsquarters [6, 19] | Lambsquarters plant response rating [6, 20] | Plant response rating, Foxtail, Giant [12, 19] | Plant response rating, Pigweed [13, 17] | Plant response rating, Pigweed [13, 18] | Plant response rating, Pigweed [13, 19] | Pigweed plant response rating [13, 20]
98: Plant response rating, Velvetleaf [1, 16] | Plant response rating, Ragweed [2, 18] | Plant response rating, Galium [3, 18] | Oilseed Rape plant response rating [4, 15] | Plant response rating, Oilseed Rape [4, 16] | Oilseed Rape plant response rating [4, 21] | Foxtail, Giant plant response rating [12, 20] | Plant response rating, Pigweed [13, 16]
75: Plant response rating, Velvetleaf [1, 14] | Plant response rating, Velvetleaf [1, 17] | Nutsedge, Yellow plant response rating [8, 21] | Plant response rating, Foxtail, Giant [12, 17] | Plant response rating, Pigweed [13, 14]
55: Nutsedge, Yellow plant response rating [8, 15] | Plant response rating, Ryegrass, Italian [11, 18]
90: Velvetleaf plant response rating [1, 21] | Plant response rating, Galium [3, 14] | Galium plant response rating [3, 15] | Plant response rating, Galium [3, 17] | Galium plant response rating [3, 21] | Plant response rating, Oilseed Rape [4, 19] | Plant response rating, Lambsquarters [6, 14] | Lambsquarters plant response rating [6, 15] | Plant response rating, Lambsquarters [6, 18] | Plant response rating, Barnyardgrass [7, 19] | Plant response rating, Wheat [9, 16] | Blackgrass plant response rating [10, 20] | Ryegrass, Italian plant response rating [11, 20] | Plant response rating, Foxtail, Giant [12, 16]
5: Plant response rating, Ragweed [2, 16] | Plant response rating, Crabgrass, Large [5, 18] | Plant response rating, Soybean (soybean (Glycine max); [14]) | Plant response rating, Nutsedge, Yellow [8, 17] | Corn plant response rating (corn (Zea mays); [15]) | Plant response rating, Corn (corn (Zea mays); [18]) | Corn plant response rating (corn (Zea mays); [20]) | Blackgrass plant response rating [10, 15] | Plant response rating, Ryegrass, Italian [11, 14]
10: Plant response rating, Oilseed Rape [4, 17] | Plant response rating, Crabgrass, Large [5, 14] | Soybean plant response rating (soybean (Glycine max); [15]) | Plant response rating, Soybean (soybean (Glycine max); [17]) | Plant response rating, Soybean (soybean (Glycine max); [18]) | Plant response rating, Soybean (soybean (Glycine max); [19]) | Soybean plant response rating (soybean (Glycine max); [21]) | Plant response rating, Corn (corn (Zea mays); [16]) | Corn plant response rating (corn (Zea mays); [21]) | Plant response rating, Wheat [9, 18] | Plant response rating, Blackgrass [10, 14] | Ryegrass, Italian plant response rating [11, 15]
80: Nutsedge, Yellow plant response rating [8, 20] | Plant response rating, Blackgrass [10, 18] | Pigweed plant response rating [13, 15]
60: Plant response rating, Crabgrass, Large [5, 19]
20: Crabgrass, Large plant response rating [5, 15] | Soybean plant response rating (soybean (Glycine max); [20])
